“And” between values parts separate entries of the source, which are not always exact repeats. Equal entries are not always repeated. Where two headings read alike, the source gives them in different places.
What was measured:
mice = details: ref [59]; cited from earlier work
DiMT protein = assay type: biochemical, Dirofilaria immitis
D. immitis microfilariae = test: In vitro efficacy against live D. immitis microfilariae (motility, completely immotile %); assay type: cell-based, Dirofilaria immitis; details: for Completely Immotile Microfilariae (%): single experiments
Gram-positive bacteria = tested on: Gram-positive bacteria; set-up: method as in PMID 4622052; details: in vitro and in vivo; ref [59]; cited from earlier work
mammalian cells = details: read-out: Cytotoxicity IC50, ref Zhang et al., [30]; cited from earlier work

CO[C@@H]1/C=C/O[C@@]2(C)Oc3c(C)c(O)c4c(c3C2=O)C(=N[C@@H]2CC[C@@H](O)O[C@H]2C)C=C(NC(=O)/C(C)=C\C(=O)[C@@H]2C[C@@H]2[C@H](O)[C@@H](C)[C@@H](O)[C@@H](C)[C@H](OC(C)=O)[C@@H]1C)C4=O [NSC177383, tolypomycin-Y]
toxicity in mice (mice): low toxicity | Mean Percent Inhibition (DiMT protein; 40 µM): 17.3% and 18.1% and 14.9% | Mean Percent Inhibition, Average (DiMT protein; 40 µM): 16.8% | Mean Percent Inhibition (DiMT protein; 80 µM): 30.5% and 30.7% and 34.4% | Mean Percent Inhibition, Average (DiMT protein; 80 µM): 31.9% | Mean Percent Inhibition (DiMT protein; 120 µM): 45.9% and 41.2% and 40.2% | Mean Percent Inhibition, Average (DiMT protein; 120 µM): 42.4% | Mean Percent Inhibition (DiMT protein; 140 µM): 50.6% and 45.4% and 42.2% | Mean Percent Inhibition, Average (DiMT protein; 140 µM): 46.1% | Mean Percent Inhibition (DiMT protein; 180 µM): 63.6% and 62.4% and 64.2% | Mean Percent Inhibition, Average (DiMT protein; 180 µM): 63.4% | IC50 (DiMT protein; read-out: IC 50 (μM ± SEM)): 140 ± 2.2 µM | Mean completely Immotile (%) (D. immitis microfilariae; 10 µM, 0 h): 0% | Mean completely Immotile (%) (D. immitis microfilariae; 10 µM, 24 h): 7.83% | Mean completely Immotile (%) (D. immitis microfilariae; 10 µM, 48 h): 18.5% | Mean completely Immotile (%) (D. immitis microfilariae; 10 µM, 72 h): 27.33% | Mean completely Immotile (%) (D. immitis microfilariae; 10 µM, 96 h): 38% | Mean completely Immotile (%) (D. immitis microfilariae; 10 µM, 120 h): 56.33% | Mean completely Immotile (%) (D. immitis microfilariae; 25 µM, 0 h): 0% | Mean completely Immotile (%) (D. immitis microfilariae; 25 µM, 24 h): 25.33% | Mean completely Immotile (%) (D. immitis microfilariae; 25 µM, 48 h): 33% | Mean completely Immotile (%) (D. immitis microfilariae; 25 µM, 72 h): 71.33% | Mean completely Immotile (%) (D. immitis microfilariae; 25 µM, 96 h): 91.33% | Mean completely Immotile (%) (D. immitis microfilariae; 40 µM, 0 h): 0% | Mean completely Immotile (%) (D. immitis microfilariae; 40 µM, 24 h): 57.67% | Mean completely Immotile (%) (D. immitis microfilariae; 40 µM, 48 h): 87.67% | Mean completely Immotile (%) (D. immitis microfilariae; 40 µM, 72 h): 96.67% | Mean completely Immotile (%) (D. immitis microfilariae; 40 µM, 96 h): 100% | Mean completely Immotile (%) (D. immitis microfilariae; 40 µM, 120 h): 100% | Mean completely Immotile (%) (D. immitis microfilariae; 50 µM, 0 h): 0% | Mean completely Immotile (%) (D. immitis microfilariae; 50 µM, 24 h): 64.67% | Mean completely Immotile (%) (D. immitis microfilariae; 50 µM, 48 h): 93.67% | Mean completely Immotile (%) (D. immitis microfilariae; 50 µM, 72 h): 100% | Mean completely Immotile (%) (D. immitis microfilariae; 50 µM, 96 h): 100% | Mean completely Immotile (%) (D. immitis microfilariae; 50 µM, 120 h): 100% | Mean completely Immotile (%) (D. immitis microfilariae; 75 µM, 0 h): 0% | Mean completely Immotile (%) (D. immitis microfilariae; 75 µM, 24 h): 95.33% | Mean completely Immotile (%) (D. immitis microfilariae; 75 µM, 48 h): 100% | Mean completely Immotile (%) (D. immitis microfilariae; 75 µM, 72 h): 100% | Mean completely Immotile (%) (D. immitis microfilariae; 75 µM, 96 h): 100% | Mean completely Immotile (%) (D. immitis microfilariae; 75 µM, 120 h): 100% | Mean completely Immotile (%) (D. immitis microfilariae; 100 µM, 0 h): 0% | Mean completely Immotile (%) (D. immitis microfilariae; 100 µM, 24 h): 100% | Mean completely Immotile (%) (D. immitis microfilariae; 100 µM, 48 h): 100% | Mean completely Immotile (%) (D. immitis microfilariae; 100 µM, 72 h): 100% | Mean completely Immotile (%) (D. immitis microfilariae; 100 µM, 96 h): 100% | Mean completely Immotile (%) (D. immitis microfilariae; 100 µM, 120 h): 100% | EC50 (D. immitis microfilariae; 96 h post-treatment, read-out: Anti-parasitic EC50): 11.7 µM and 11.6 µM | Completely Immotile Microfilariae (%) (D. immitis microfilariae; 10 µM, 0 h): 0% | Completely Immotile Microfilariae (%) (D. immitis microfilariae; 10 µM, 24 h): 5% and 8.5% and 10% | Completely Immotile Microfilariae (%) (D. immitis microfilariae; 10 µM, 48 h): 15% and 19.5% and 21% | Completely Immotile Microfilariae (%) (D. immitis microfilariae; 10 µM, 72 h): 25% and 27% and 30% | Completely Immotile Microfilariae (%) (D. immitis microfilariae; 10 µM, 96 h): 35% and 38% and 41% | Completely Immotile Microfilariae (%) (D. immitis microfilariae; 10 µM, 120 h): 50% and 61% and 58% | Completely Immotile Microfilariae (%) (D. immitis microfilariae; 25 µM, 0 h): 0% | Completely Immotile Microfilariae (%) (D. immitis microfilariae; 25 µM, 24 h): 25% and 28% and 23% | Completely Immotile Microfilariae (%) (D. immitis microfilariae; 25 µM, 48 h): 30% and 37% and 32% | Completely Immotile Microfilariae (%) (D. immitis microfilariae; 25 µM, 72 h): 70% and 76% and 68% | Completely Immotile Microfilariae (%) (D. immitis microfilariae; 25 µM, 96 h): 90% and 95% and 89% | Completely Immotile Microfilariae (%) (D. immitis microfilariae; 25 µM, 120 h): 100% | Completely Immotile Microfilariae (%) (D. immitis microfilariae; 40 µM, 0 h): 0% | Completely Immotile Microfilariae (%) (D. immitis microfilariae; 40 µM, 24 h): 50% and 65% and 58% | Completely Immotile Microfilariae (%) (D. immitis microfilariae; 40 µM, 48 h): 85% and 90% and 88% | Completely Immotile Microfilariae (%) (D. immitis microfilariae; 40 µM, 72 h): 95% and 98% and 97% | Completely Immotile Microfilariae (%) (D. immitis microfilariae; 40 µM, 96 h): 100% | Completely Immotile Microfilariae (%) (D. immitis microfilariae; 40 µM, 120 h): 100% | Completely Immotile Microfilariae (%) (D. immitis microfilariae; 50 µM, 0 h): 0% | Completely Immotile Microfilariae (%) (D. immitis microfilariae; 50 µM, 24 h): 60% and 78% and 56% | Completely Immotile Microfilariae (%) (D. immitis microfilariae; 50 µM, 48 h): 90% and 95% and 96% | Completely Immotile Microfilariae (%) (D. immitis microfilariae; 50 µM, 72 h): 100% | Completely Immotile Microfilariae (%) (D. immitis microfilariae; 50 µM, 96 h): 100% | Completely Immotile Microfilariae (%) (D. immitis microfilariae; 50 µM, 120 h): 100% | Completely Immotile Microfilariae (%) (D. immitis microfilariae; 75 µM, 0 h): 0% | Completely Immotile Microfilariae (%) (D. immitis microfilariae; 75 µM, 24 h): 95% and 93% and 98% | Completely Immotile Microfilariae (%) (D. immitis microfilariae; 75 µM, 48 h): 100% | Completely Immotile Microfilariae (%) (D. immitis microfilariae; 75 µM, 72 h): 100% | Completely Immotile Microfilariae (%) (D. immitis microfilariae; 75 µM, 96 h): 100% | Completely Immotile Microfilariae (%) (D. immitis microfilariae; 75 µM, 120 h): 100% | Completely Immotile Microfilariae (%) (D. immitis microfilariae; 100 µM, 0 h): 0% | Completely Immotile Microfilariae (%) (D. immitis microfilariae; 100 µM, 24 h): 100% | Completely Immotile Microfilariae (%) (D. immitis microfilariae; 100 µM, 48 h): 100% | Completely Immotile Microfilariae (%) (D. immitis microfilariae; 100 µM, 72 h): 100% | Completely Immotile Microfilariae (%) (D. immitis microfilariae; 100 µM, 96 h): 100% | Completely Immotile Microfilariae (%) (D. immitis microfilariae; 100 µM, 120 h): 100% | effect on microfilariae (D. immitis microfilariae; up to 120 h of culture): killing effect | antimicrobial activities against Gram-positive bacteria (Gram-positive bacteria): strong antimicrobial activities | IC50 (mammalian cells): 85.5 µM
